In ChEMBL document CHEMBL6182836 (RSC Med Chem, 2025):
Activity calls are given as the source filed them. No cut-off for these calls is given here.

Key:
Cholinesterase [1] = target: Cholinesterase (Equus caballus, UniProt P81908)
Description: Inhibition of equine serum BuChE using butyrylthiocholine iodide as substrate measured for 30 mins by Ellman's method

Cortical neurone [2] = assay: Neuroprotective activity against glutamate-induced excitotoxicity in Wistar rat primary cortical neurons assessed as cell death at 1 uM pretreated with compound for 24 hrs followed by incubation with glutamate for 20 mins by LDH assay relative to control; assay type: functional; details: time 1460 min, 24.33 h
[3] = Neurotoxicity in Wistar rat primary cortical neurons assessed as cell viability at 0.001 to 100 uM incubated for 24 hrs by LDH assay; assay type: toxicity, cell-based; details: cortical neurone, dose 0.001-100 µM
Cortical neurone [4] = assay: Neuroprotective activity against glutamate-induced excitotoxicity in Wistar rat primary cortical neurons assessed as cell death at 1 uM pretreated with glutamate followed by compound addition measured after 24 hrs by LDH assay relative to control; assay type: functional
Acetylcholinesterase [5] = target: Acetylcholinesterase (Electrophorus electricus, UniProt O42275); assay: Inhibition of electric eel AChE using acetylthiocholine iodide as substrate measured for 30 mins by Ellman's method
[6] = Neurotoxicity in Wistar rat primary cortical neurons assessed as inhibition of cell viability incubated for 24 hrs by LDH assay; assay type: toxicity, cell-based, Cortical neurone; details: for IC50 at 24 h: Wistar, primary cortical neurons; for Activity: cortical neurone, 24 h
Acetylcholinesterase [7] = target: Acetylcholinesterase (Homo sapiens, UniProt P22303); assay: Inhibition of AChE (unknown origin)
Cholinesterase [8] = target: Cholinesterase (Homo sapiens, UniProt P06276); assay: Inhibition of BChE (unknown origin)
[9] = Stability in human plasma at 200 uM measured after 240 mins by HPLC-UV analysis; assay type: ADME, cell-free; details: 4 h
Astrocyte [10] = assay: Neuroprotective activity against glutamate-induced excitotoxicity in Wistar rat astrocytes co-cultured with neurons assessed as prevention of disruption of cytoskeleton at 10 uM pretreated with glutamate followed by compound addition measured after 24 hrs by fluorescence based analysis; assay type: functional, cell-based
[11] = Stability in human plasma assessed as compound degradation at 200 uM measured after 240 mins by HPLC-UV analysis; assay type: ADME, cell-free; details: read-out: Drug degradation
[12] = Neuroprotective activity against glutamate-induced excitotoxicity in Wistar rat hippocampal neurons assessed as increase in intracellular ATP level pretreated with glutamate followed by compound addition measured after 24 hrs by CellTiter-Glo assay (reference value: 70 %); assay type: functional, Hippocampal neuron
[13] = Stability in human plasma at pH 7.4 assessed as half life at 200 uM measured up to 240 mins by HPLC-UV analysis; assay type: ADME, cell-free
Astrocyte [14] = assay: Neuroprotective activity against glutamate-induced excitotoxicity in Wistar rat astrocytes co-cultured with neurons assessed as prevention of collapse of dendritic spines at 10 uM pretreated with glutamate followed by compound addition measured after 24 hrs by fluorescence based analysis; assay type: functional, cell-based
Astrocyte [15] = assay: Neuroprotective activity against glutamate-induced excitotoxicity in Wistar rat astrocytes co-cultured with neurons assessed as prevention of retraction of dendritic spines at 10 uM pretreated with compound for 24 hrs followed by incubation with glutamate for 20 mins by fluorescence based analysis; assay type: functional, cell-based; details: time 1460.0 min
Astrocyte [16] = assay: Neuroprotective activity against glutamate-induced excitotoxicity in Wistar rat astrocytes co-cultured with neurons assessed as prevention of disruption of cytoskeleton at 10 uM pretreated with compound for 24 hrs followed by incubation with glutamate for 20 mins by fluorescence based analysis; assay type: functional, cell-based; details: time 1460.0 min
[17] = mouse, astrocyte, 24 h
Description: Blood-brain barrier transwell (BBB-T) permeability in mouse bEnd.3 cells (luminal side) to C57BL/6 mouse astrocyte (abluminal side) measured after 24 hrs by Transwell assay

Astrocyte [18] = assay: Neuroprotective activity against glutamate-induced excitotoxicity in Wistar rat astrocytes assessed as decrease in LDH release at 10 uM pretreated with glutamate followed by compound addition measured after 24 hrs by spectrophotometric analysis relative to control; assay type: functional; set-up: scale not given: the % may be the effect or the level left
in vitro = details: human, HepG2 cells
Description: Cytotoxicity against human HepG2 cells assessed as inhibition of cell growth incubated for 24 hrs by SRB assay

Astrocyte [19] = assay: Neuroprotective activity against glutamate-induced excitotoxicity in Wistar rat astrocytes co-cultured with neurons assessed as prevention of retraction of dendritic spines at 10 uM pretreated with glutamate followed by compound addition measured after 24 hrs by fluorescence based analysis; assay type: functional, cell-based
Astrocyte [20] = assay: Neuroprotective activity against glutamate-induced excitotoxicity in Wistar rat astrocytes co-cultured with neurons assessed as prevention of collapse of dendritic spines at 10 uM pretreated with compound for 24 hrs followed by incubation with glutamate for 20 mins by fluorescence based analysis; assay type: functional, cell-based; details: time 1460.0 min
[21] = Neuroprotective activity against glutamate-induced excitotoxicity in Wistar rat hippocampal neurons assessed as increase in intracellular ATP level pretreated with compound for 24 hrs followed by incubation with glutamate for 20 mins by CellTiter-Glo assay (reference value: 70 %); assay type: functional, Hippocampal neuron; details: time 1460 min; 24.33 h
[22] = Cytotoxicity against human HepG2 cells assessed as fold decrease in GI50 incubated for 24 hrs by SRB assay relative to tacrine; assay type: toxicity, cell-based; details: read-out: RatioGI50
Astrocyte [23] = assay: Neuroprotective activity against glutamate-induced excitotoxicity in Wistar rat astrocytes co-cultured with neurons assessed as decrease in LDH release at 10 uM pretreated with compound for 24 hrs followed by glutamate addition for 20 mins by spectrophotometric analysis relative to control; assay type: functional; set-up: scale not given: the % may be the effect or the level left; details: time 1460 min, 24.33 h
[24] = Stability in human plasma assessed as compound remaining at 200 uM incubated for 240 mins by HPLC-UV analysis; assay type: ADME, cell-free; details: read-out: Stability
HepG2 [25] = details: human, hepg2, 24 h
Description: Cytotoxicity against human HepG2 cells assessed as total growth inhibition incubated for 24 hrs by SRB assay

HepG2 [26] = details: human, hepg2, 24 h; remark: listed apart in the source
Description: Cytotoxicity against human HepG2 cells assessed as cell population mortality incubated for 24 hrs by SRB assay

Astrocyte [27] = assay: Neuroprotective activity against glutamate-induced excitotoxicity in Wistar rat astrocytes co-cultured with neurons assessed as protection against cell injury at 10 uM pretreated with compound for 24 hrs followed by incubation with glutamate for 20 mins by fluorescence based analysis; assay type: functional; details: time 1460.0 min

Sequence of Acetylcholinesterase (Electrophorus electricus, UniProt O42275) (O42275 whole entry): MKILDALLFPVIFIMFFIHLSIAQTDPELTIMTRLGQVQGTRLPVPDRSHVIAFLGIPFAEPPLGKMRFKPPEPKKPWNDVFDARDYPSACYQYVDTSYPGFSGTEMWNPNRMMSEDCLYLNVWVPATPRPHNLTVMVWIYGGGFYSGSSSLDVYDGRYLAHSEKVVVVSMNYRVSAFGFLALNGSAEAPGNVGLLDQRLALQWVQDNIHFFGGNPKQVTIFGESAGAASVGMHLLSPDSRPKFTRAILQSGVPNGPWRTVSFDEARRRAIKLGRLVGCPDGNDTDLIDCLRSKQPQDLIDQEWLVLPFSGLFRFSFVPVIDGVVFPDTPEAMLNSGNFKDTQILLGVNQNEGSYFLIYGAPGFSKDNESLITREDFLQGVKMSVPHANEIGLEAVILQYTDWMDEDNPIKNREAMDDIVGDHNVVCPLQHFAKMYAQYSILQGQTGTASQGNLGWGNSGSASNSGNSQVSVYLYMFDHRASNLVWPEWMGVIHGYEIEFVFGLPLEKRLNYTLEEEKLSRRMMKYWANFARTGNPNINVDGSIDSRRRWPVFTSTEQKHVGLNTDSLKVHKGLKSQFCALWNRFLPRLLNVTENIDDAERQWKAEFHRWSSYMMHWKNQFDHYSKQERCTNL
Sequence of Acetylcholinesterase (Homo sapiens, UniProt P22303) (P22303 whole entry): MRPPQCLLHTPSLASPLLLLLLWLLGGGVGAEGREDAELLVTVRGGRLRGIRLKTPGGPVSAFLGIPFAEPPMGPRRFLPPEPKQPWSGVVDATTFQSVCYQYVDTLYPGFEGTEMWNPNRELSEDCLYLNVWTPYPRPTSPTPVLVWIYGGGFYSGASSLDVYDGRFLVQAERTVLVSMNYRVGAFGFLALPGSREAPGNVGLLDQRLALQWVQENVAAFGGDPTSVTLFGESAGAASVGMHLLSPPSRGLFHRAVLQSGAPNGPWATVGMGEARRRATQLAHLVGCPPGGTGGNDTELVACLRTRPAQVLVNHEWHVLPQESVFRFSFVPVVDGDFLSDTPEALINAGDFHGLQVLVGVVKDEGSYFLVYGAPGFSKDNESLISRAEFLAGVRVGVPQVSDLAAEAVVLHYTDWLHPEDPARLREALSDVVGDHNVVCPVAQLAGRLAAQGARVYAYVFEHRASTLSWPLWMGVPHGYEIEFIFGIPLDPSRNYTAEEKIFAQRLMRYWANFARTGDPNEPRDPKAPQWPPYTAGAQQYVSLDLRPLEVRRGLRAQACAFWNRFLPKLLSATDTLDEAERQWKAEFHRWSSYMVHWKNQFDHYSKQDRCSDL
Sequence of Cholinesterase (Homo sapiens, UniProt P06276) (P06276 whole entry): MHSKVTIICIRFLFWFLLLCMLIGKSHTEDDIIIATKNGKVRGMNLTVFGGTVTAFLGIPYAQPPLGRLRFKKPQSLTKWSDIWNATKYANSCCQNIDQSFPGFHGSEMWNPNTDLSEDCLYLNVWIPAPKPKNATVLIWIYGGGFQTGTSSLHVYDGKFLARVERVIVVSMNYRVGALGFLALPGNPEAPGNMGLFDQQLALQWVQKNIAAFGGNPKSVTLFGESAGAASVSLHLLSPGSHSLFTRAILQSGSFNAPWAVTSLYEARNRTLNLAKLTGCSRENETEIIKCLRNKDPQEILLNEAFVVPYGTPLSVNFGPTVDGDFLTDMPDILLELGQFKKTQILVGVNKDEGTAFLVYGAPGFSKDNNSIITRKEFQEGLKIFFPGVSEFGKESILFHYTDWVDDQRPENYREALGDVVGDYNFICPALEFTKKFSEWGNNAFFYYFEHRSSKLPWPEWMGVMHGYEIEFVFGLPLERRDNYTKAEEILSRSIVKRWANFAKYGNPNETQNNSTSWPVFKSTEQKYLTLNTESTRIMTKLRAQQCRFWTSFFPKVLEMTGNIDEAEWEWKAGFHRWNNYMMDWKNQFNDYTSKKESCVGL
Sequence of Cholinesterase (Equus caballus, UniProt P81908) (P81908 whole entry): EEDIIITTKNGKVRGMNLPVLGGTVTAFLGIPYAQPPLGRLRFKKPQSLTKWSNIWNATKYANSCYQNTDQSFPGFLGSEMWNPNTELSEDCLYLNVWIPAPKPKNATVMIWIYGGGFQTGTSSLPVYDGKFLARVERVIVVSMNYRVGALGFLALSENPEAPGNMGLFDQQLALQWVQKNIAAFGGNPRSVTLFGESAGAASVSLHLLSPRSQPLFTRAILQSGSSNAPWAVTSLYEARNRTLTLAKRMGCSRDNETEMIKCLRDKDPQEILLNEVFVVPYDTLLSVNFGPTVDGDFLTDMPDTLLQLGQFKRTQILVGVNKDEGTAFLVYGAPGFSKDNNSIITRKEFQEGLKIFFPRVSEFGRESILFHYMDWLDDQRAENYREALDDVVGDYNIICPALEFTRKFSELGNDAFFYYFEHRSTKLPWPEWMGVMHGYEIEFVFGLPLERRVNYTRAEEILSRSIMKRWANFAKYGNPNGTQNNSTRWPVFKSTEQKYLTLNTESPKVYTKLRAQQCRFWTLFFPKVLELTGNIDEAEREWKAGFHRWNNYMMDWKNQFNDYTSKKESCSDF

## COc1cc(OC)cc(C(C#N)N2CCN(CC(=O)Nc3c4c(nc5ccccc35)CCC4)CC2)c1 (racemic)
Cholinesterase [1]
  IC50: 690 nM
Cortical neurone [2]
  Activity: 62.67%
[3]
  Activity: Non-toxic
Cortical neurone [4]
  Activity: 35.59%
Acetylcholinesterase [5]
  IC50: Not_active
[6]
  IC50 at 24 h: 298000 nM
  Activity: Toxic

## COc1ccc(C(C#N)N2CCN(CC(=O)Nc3c4c(nc5ccccc35)CCC4)CC2)c(OC)c1 (racemic)
Cholinesterase [1]
  IC50: 910 nM
Cortical neurone [2]
  Activity: 63.15%
[3]
  Activity: Non-toxic
Cortical neurone [4]
  Activity: 44.97%
Acetylcholinesterase [5]
  IC50: Not_active
[6]
  IC50 at 24 h: 364000 nM
  Activity: Toxic

## O=C(NCCCNc1c2c(nc3ccccc13)CCC2)c1cnc(Cl)c(Cl)c1
Acetylcholinesterase [7]
  IC50: 52 nM
Cholinesterase [8]
  IC50: 158 nM

## Cc1cc(=O)[nH]c2c1C(=O)C(NCNc1c3c(nc4ccccc14)CCCC3)=CC2=O
Acetylcholinesterase [7]
  IC50: 11.1 nM
Cholinesterase [8]
  IC50: 180 nM

## COc1cccc(C(C#N)N2CCN(CC(=O)Nc3c4c(nc5ccccc35)CCC4)CC2)c1OC (racemic)
Cholinesterase [1]
  IC50: 310 nM
[9]
  Stability: Stable
Astrocyte [10]
  Activity: Active
[11]
  metabolised at 4 h, 200 µM: ~48%
Cortical neurone [2]
  Activity: 71.05%
[12]
  Activity: 51.85%
[13]
  half-life at 200 µM: 4.8 h
[3]
  Activity: Non-toxic
Astrocyte [14]
  Activity: Active
Astrocyte [15]
  Activity: Active
Astrocyte [16]
  Activity: Active
[17]
  permeability: 58%
Cortical neurone [4]
  Activity: 47.45%
Astrocyte [18]
  Activity: ~52%
Acetylcholinesterase [5]; read-out: IC50
  IC50: 440 nM
In vitro
  GI50 at 24 h: 93600 nM
[6]
  IC50 at 24 h: 476000 nM
  Activity: Toxic
Astrocyte [19]
  Activity: Active
Astrocyte [20]
  Activity: Active
[21]
  Activity: 31.11%
[22]
  selectivity ratio at 24 h: 8
Astrocyte [23]
  Activity: ~33%
[24]
  remaining at 4 h, 200 µM: 52.4%
HepG2 [25]
  TGI: 188160 nM
HepG2 [26]
  LC50: > 200000 nM
Astrocyte [27]
  Activity: Active

## CC12CC3CC(C)(C1)CC(N)(C3)C2 [MEMANTINE]
Cortical neurone [2]
  Activity: 36.84%
[12]
  Activity: 44.44%
Cortical neurone [4]
  Activity: 46.61%
[6]
  IC50 at 24 h: 272000 nM
[21]
  Activity: 10.37%

## COc1ccc(OC)c(C(C#N)N2CCN(CC(=O)Nc3c4c(nc5ccccc35)CCC4)CC2)c1 (racemic)
Cholinesterase [1]
  IC50: 1720 nM
Cortical neurone [2]
  Activity: 63.52%
[3]
  Activity: Non-toxic
Cortical neurone [4]
  Activity: 30.83%
Acetylcholinesterase [5]
  IC50: Not_active
[6]
  IC50 at 24 h: 427000 nM
  Activity: Toxic

## CN(C)c1ccc(C(C#N)N2CCN(CC(=O)Nc3c4c(nc5ccccc35)CCC4)CC2)cc1 (racemic)
Cholinesterase [1]
  IC50: 410 nM
Cortical neurone [2]
  Activity: 34.63%
[3]
  Activity: Non-toxic
Cortical neurone [4]
  Activity: 22.03%
Acetylcholinesterase [5]; read-out: IC50
  IC50: 480 nM
[6]
  IC50 at 24 h: 218000 nM
  Activity: Toxic

## COc1cc2c(cc1OC)CC(CN1CCN(CCCNc3c4c(nc5cc(Cl)ccc35)C[C@H]3C=C(C)C[C@@H]4C3)CC1)C2
Acetylcholinesterase [7]
  IC50: 2.61 nM
Cholinesterase [8]
  IC50: 349 nM

## COc1ccc(C(C#N)N2CCN(CC(=O)Nc3c4c(nc5ccccc35)CCC4)CC2)cc1 (racemic)
Cholinesterase [1]
  IC50: 640 nM
Cortical neurone [2]
  Activity: 40.71%
[3]
  Activity: Non-toxic
Cortical neurone [4]
  Activity: 28.81%
Acetylcholinesterase [5]
  IC50: Not_active
[6]
  IC50 at 24 h: 436000 nM
  Activity: Toxic

## COc1ccc(C(C#N)N2CCN(CC(=O)Nc3c4c(nc5ccccc35)CCC4)CC2)cc1OC (racemic)
Cholinesterase [1]
  IC50: 440 nM
Cortical neurone [2]
  Activity: 58.28%
[3]
  Activity: Non-toxic
Cortical neurone [4]
  Activity: 38.98%
Acetylcholinesterase [5]
  IC50: Not_active
[6]
  IC50 at 24 h: 260000 nM
  Activity: Toxic
